Source: patent publication US6888015B2, “Sphingolipid synthesis inhibitor” (Japan Science and Technology Agency, priority 2001, dated 2005)

Key:
[1] = target: T1, serine palmitoyltransferase (Cricetulus griseus, UniProt O54694+O54695); test: Serine palmitoyltransferase activity, CHO membrane fraction; assay type: biochemical, Chinese hamster; details: 20 μM; data not shown
T1 construct: Membrane fraction prepared from CHO cells is used as an enzyme source; endogenous in cells; host or cells: CHO cells, membrane fraction
T1 sequence (O54695 1-473): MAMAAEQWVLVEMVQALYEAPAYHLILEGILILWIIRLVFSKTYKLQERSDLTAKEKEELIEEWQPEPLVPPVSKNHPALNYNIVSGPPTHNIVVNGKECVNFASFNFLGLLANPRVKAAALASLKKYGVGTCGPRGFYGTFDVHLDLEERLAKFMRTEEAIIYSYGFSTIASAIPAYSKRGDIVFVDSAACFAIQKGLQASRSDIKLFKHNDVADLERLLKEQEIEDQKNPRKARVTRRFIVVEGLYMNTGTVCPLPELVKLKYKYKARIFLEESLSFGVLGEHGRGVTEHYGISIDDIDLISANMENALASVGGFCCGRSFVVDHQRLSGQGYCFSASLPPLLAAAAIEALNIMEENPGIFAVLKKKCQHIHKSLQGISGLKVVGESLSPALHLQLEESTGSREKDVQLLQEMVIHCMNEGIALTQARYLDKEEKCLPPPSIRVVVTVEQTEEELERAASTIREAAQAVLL
T1 sequence (O54694 1-560): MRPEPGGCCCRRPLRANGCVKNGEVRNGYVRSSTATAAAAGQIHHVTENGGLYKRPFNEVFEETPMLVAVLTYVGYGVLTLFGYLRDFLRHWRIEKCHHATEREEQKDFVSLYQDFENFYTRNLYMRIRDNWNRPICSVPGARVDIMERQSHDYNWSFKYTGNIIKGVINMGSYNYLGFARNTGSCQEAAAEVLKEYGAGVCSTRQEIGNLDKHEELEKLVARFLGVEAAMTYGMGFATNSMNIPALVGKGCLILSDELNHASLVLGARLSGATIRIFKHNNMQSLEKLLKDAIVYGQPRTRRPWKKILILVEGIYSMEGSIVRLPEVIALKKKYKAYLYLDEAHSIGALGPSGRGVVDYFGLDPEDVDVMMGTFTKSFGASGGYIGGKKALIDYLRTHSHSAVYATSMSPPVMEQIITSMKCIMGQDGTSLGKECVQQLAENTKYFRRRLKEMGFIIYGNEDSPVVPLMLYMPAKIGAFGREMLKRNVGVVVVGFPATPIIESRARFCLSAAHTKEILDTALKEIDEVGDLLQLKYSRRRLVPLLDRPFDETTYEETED
Procedure: (§1) Membrane fraction prepared from CHO cells is used as an enzyme source.
(§2) Serine palmitoyltransferase activity is determined by the method disclosed in Document 7, and sphingosine N-acyl transferase activity is determined by a modification of the method disclosed in Document 7.

[2] = test system: sphingosine N-acyl transferase; test: Sphingosine N-acyl transferase activity, CHO membrane fraction; assay type: biochemical, Chinese hamster; details: 20 μM; data not shown
Procedure: as §1, §2

[3] = test system: biosynthesis of phosphatidylcholine; test: Metabolic labeling of lipids with [14C]choline; assay type: cell-based, Chinese hamster; details: 1 μM, 33° C., 4 hours
Procedure: CHO cells are seeded at the density of 1.0×10^6 cell in 5 mL of F12 medium containing 10% NBS, by per 60-mm dish, and cultured at 33° C. overnight. Then, the medium is changed to 1.5 mL of Nutridoma medium if necessary, various drugs are added and incubated at 4° C. for 15 minutes. Then, after addition of [^14C] serine (0.75 μCi) or [^14 C] choline (1.0 μCi) to the medium, cells were incubated at 33° C. for various periods of time.
Cells are washed twice with 2 mL of cold phosphate-buffered saline (PBS), and lysed with 900 μL of 0.1% sodium dodecyl sulfate (SDS). Then, 800 μL and 20 μL of lysate are used for lipid extraction and determination of protein concentration, respectively.
For the analysis of the lipid labeled by [^14C] choline, the lipid is separated by one-dimensional TLC using chloroform/methanol/acetic acid/H2O (25:15:4:2, volume ratio) as a developing solvent. […]
Radioactive lipid separated on the TLC plates are detected with image analyzer depicted above. After the collection of gels from TLC plates by scraping, the radioactivity of each lipid is determined by liquid scintillation counting and normalized to the protein concentration of cells.

[4] = test system: conversion of Cer to SM in intact cells; test: Conversion of [3H]Cer to [3H]SM in intact cells ([3H]sphingosine pulse-chase); assay type: cell-based, Chinese hamster; details: 1 μM; chase at 33° C. up to 1 hour with fumonisin B1
Procedure: The measurement of conversion of [^3H] Cer to [^3H] SM in cells is performed by a modified method of the method disclosed in Document 1. That is, as the first step, cells are pulse-labeled in 1.5 mL of Nutridoma medium containing 1 μM D-erythro-[^3H] sphingosine (2.5 μCi). After washed, the cells are incubated in 1.5 mL of Nutridoma medium supplemented with or without 1 μM HPA-12 at 4° C. for 15 minutes, then incubated under the presence of 100 μM fumonisin B, at 33° C. for various periods of time for chase.
The lipids are extracted from the chased cells, and separated by TLC with a developing solvent consisting of chloroform/methanol/H2O (volume ratio, 65:25:4). Then, the radioactivity of each lipid is measured by the method mentioned above.
To examine the inhibitory effect of HPA-12 on the step of Cer-to-SM conversion specifically, metabolic labeling experiments with [^3H] sphingosine are carried out. When cells are labelled with [^3H] sphingosine at 15° C., [^3H] sphingosine is effectively N-acylated and converted to [^3H] Cer, but, [^3H] Cer is not converted to [^3H] SM at this temperature (Document 2). After the labeling with [^3H] sphingosine at low temperature to generate [^3H] Cer, the cells are treated with 1 μM HPA-12 at 4° C. for 15 minutes, and then incubated at 33° C. up to 1 hour for chase. During the chase, de novo synthesis of [^3H] […]

## CCCCCCCCCCCC(=O)NC(CO)CC(O)c1ccccc1 (stereo not drawn) [HPA-12, N-(3-hydroxy-1-hydroxymethyl-3-phenylprol)dodecaneamide]
[1]
  activity of serine palmitoyltransferase: does not affect
[2]
  activity of sphingosine N-acyl transferase: does not affect
[3]
  level of [14C]PC vs untreated cells: almost equal
  level of [14C]SM vs drug-untreated control level: about half
[4]
  formation of [3H]GlcCer: does not inhibit and rather increases
  inhibition of formation of [3H]SM: 50%
